Tests used:
[1] = tested on: bone resorption (metaphyseal BMD); experiment: Growing rat model adapted from the Schenk assay: BMD of proximal tibial metaphysis by DXA; assay type: in vivo; conditions: growing male Sprague Dawley rats, s.c. daily for 7 days
Experimental: The antiresorptive potency of OX14 was measured by its effect on increasing BMD compared to ALN, ZOL, RIS, and MIN in a growing rat model adapted from the Schenk assay.26, 27 These studies were performed at the Procter & Gamble Health Sciences Center, Mason, OH, USA from 2007 to 2010, as part of the program of screening new bisphosphonates. Male Sprague Dawley rats (6 weeks old, weighing 120 to 150 g) were randomized into groups (n = 6) based on body weight. All groups received treatment by subcutaneous (s.c.) injection at the same time daily for 7 days. The first treatment was on day 0, and the last treatment on day 6, with animals euthanized by cervical dislocation on day 7. BMD of the proximal metaphysis of the right tibia was analyzed using dual‐energy X‐ray analysis (DXA) using a Hologic QDR‐4500 densitometer (Hologic, Inc., Waltham, MA, USA). Efficacy of each bisphosphonate was expressed as percentage change from the vehicle control group. The dose that increased BMD 20% greater than the control was determined via a logistic dose‐response relationship (SAS Institute, Inc., Cary, NC, USA), which estimates an efficacy value using animals in the study, and for comparison of bisphosphonates across studies. Data from compounds run in multiple studies was averaged.

[2] = Short-term (24-hour) skeletal retention based on urinary excretion after i.v. dosing; assay type: in vivo, Sprague Dawley rats; conditions: for Percentage of the dose excreted in urine over 24 hours / Skeletal retention (% of administered dose): rats, i.v.; for Percentage of the dose excreted in urine over 24 hours: 0 to 24 hours, mean ± standard deviation, averaged from all studies; for Skeletal retention (% of administered dose): calculated as dose administered minus urinary excretion over 24 hours
[3] = Mineral binding affinity: elution from hydroxyapatite (HAP) columns by FPLC; assay type: physicochemical; conditions: HAP column, mean ± SE
[4] = Adverse side effects observed across all in vivo studies; design: species or system rats and mice
Text: Sprague Dawley rats, C57BL/6J and NOD/SCID‐γ (NSG, NOD.Cg‐Prkdcscid Il2rgtm1Wjl/SzJ) mice were purchased from Charles River Laboratories (Wilmington, MA, USA/Margate, UK). All animals were housed in cages under standard conditions (12‐hour light/dark cycle). NSG mice were housed in specific‐pathogen‐free conditions. All animals were healthy and pathogen‐free at the start of each study and once each study had commenced they were monitored daily for any unexpected adverse effects. […] Similar calculations were used to determine group numbers in non–tumor‐bearing animals based on previously observed changes in bone (BMD or trabecular bone fraction [BV/TV]).

[5] = tested on: experimentally induced inflammatory colitis; design: method as in earlier work; conditions: cited from earlier work
[6] = tested on: bone (BV/TV, osteoclasts, osteoblasts); experiment: In vivo OX14 dose response study in non-tumor-bearing mice (µCT and histomorphometry of tibias); design: species or system C57BL/6J mice
Experimental: Tibias were then assessed by μCT and histological analyzes as described below (see Assessment of bone integrity). […] Bruker) and analyzed using CTAn (v. 1.12; Bruker). The number and area of cortical bone lesions (pixels^2) were assessed by taking the μCT datasets, removing the trabecular bone and then volume-rendering the datasets to create 3D models using […] (version 1.0; ANUVizlab, Canberra, Australia), followed by analysis of three different sides of the bone using ImageJ software (version 1.47; NIH, Bethesda, MD, USA; https://imagej.nih.gov/ij/). After decalcification, wax embedding, and sectioning of the tibias, the numbers of osteoclasts (following tartrate-resistant acid phosphatase [TRAP] staining) were assessed using OsteoMeasure Advanced Bone Histomorphometry Video System (Osteometrics, Inc., Decatur, GA, USA) and standard histomorphometric methods.28

[7] = tested on: JJN3 myeloma cells in NSG mice; experiment: JJN3-NSG murine model of myeloma-induced bone disease; assay type: in vivo; conditions: for Osteoclast number (cortico-endosteal surface) / Cortical bone lesions by μCT / Osteolytic disease by μCT / Tumor burden by flow cytometric analysis of femoral bone marrow flushes / BV/TV by μCT: ZOL 28.4, OX14 23 µg P/kg s.c. 2×/week; for Osteoclast number (cortico-endosteal surface): tumor mice; for Cortical bone lesions by μCT / Osteolytic disease by μCT / BV/TV by μCT: vs tumor control; for BV/TV by μCT: tumor-bearing mice
Experimental: Female NSG mice (7 to 8 weeks old, weighing 19 to 23 g) were randomized based on weight into four groups (n = 8/group). Group 1 was a non–tumor‐bearing control group (naive). Groups 2 to 4 were injected via the tail vein with 1 × 10^6 JJN3 cells and then treated twice a week s.c. from the time of tumor cell injection for the duration of the study with vehicle control (PBS, group 2), ZOL (28.4 µg P/kg, group 3), or OX14 (23 µg P/kg, group 4). At the first signs of morbidity (after 3 weeks) all animals were anesthetized ([…] and 2% oxygen by inhalation) for cardiac bleeding and euthanized by cervical dislocation. Bone disease and tumor burden were assessed as described below (see Analysis of tumour burden).
At euthanasia, the right tibias were dissected free of soft tissue and fixed in 10% formalin before µCT analysis was used to measure the percentage of BV/TV. Tibias were scanned on a Skyscan 1272 (Bruker, Kontich, Belgium) at 4.3 μm with a 0.7‐degree rotation step, reconstructed using NRecon (v. 1.6.9.4; Bruker) and analyzed using CTAn (v. 1.12; Bruker). The number and area of cortical bone lesions (pixels^2) were assessed by taking the µCT datasets, removing the trabecular bone and then volume‐rendering the datasets to create 3D models using Drishti (version 1.0; ANUVizlab, Canberra, Australia), followed by analysis of three different sides of the bone using ImageJ software (version 1.47; NIH, Bethesda, MD, USA; https://imagej.nih.gov/ij/). After decalcification, wax embedding, and sectioning of the tibias, the numbers of osteoclasts (following tartrate‐resistant acid phosphatase [TRAP] staining) were assessed using OsteoMeasure Advanced Bone Histomorphometry Video System (Osteometrics, Inc., Decatur, GA, USA) and standard histomorphometric methods.28
Tumor burden was assessed on sections of tibias that had been stained with hematoxylin and eosin, where the distinct morphology of the myeloma cells distinguishes them from normal marrow. The proportion of bone marrow occupied by the myeloma cells was assessed using OsteoMeasure and expressed as a percentage of the whole bone section area as described.22 Tumor burden was also assessed in bone marrow flushes of the left femora by flow cytometry using an anti‐human HLA‐ABC‐APC antibody and an isotype‐matched control (R&D Systems, Minneapolis, MN, USA) as described.29, 30

| Structure (SMILES) | Dose required to increase BMD by 20% greater than control [1] [μg P/kg] | Percentage of the dose excreted in urine over 24 hours [2] | Skeletal retention (% of administered dose) [2] | HAP affinity (mean retention time/min) [3] [min] | Osteoclast number (cortico-endosteal surface) [7] | Cortical bone lesions by μCT [7] | Osteolytic disease by μCT [7] | Tumor burden by flow cytometric analysis of femoral bone marrow flushes ([7]; vs tumor control (JJN3)) | BV/TV by μCT [7] | further results |
| --- | --- | --- | --- | --- | --- | --- | --- | --- | --- | --- |
| O=P(O)(O)C(O)(Cc1cnc2ccccn12)P(=O)(O)O [Minodronate, minodronate] | 0.11 | 44.80% ± 1.6 | 55.2 ± 1.6 % of administered dose | 10.33 ± 0.18 | – | – | – | – | – | – |
| O=P(O)(O)C(O)(Cc1cccnc1)P(=O)(O)O [Risedronate, risedronate] | 0.45 | 34.91% ± 9.3 | 65.1 ± 9.31 % of administered dose | 9.97 ± 0.18 | – | – | – | – | – | % excretion (urine, 24 h) ([2]; RIS co-dosed with MIN or OX14): 32.5 ± 0.1%; % excretion (urine, 24 h) ([2]; RIS co-dosed with equal or greater amounts of ALN or ZOL): 43.2 ± 2.6%; % excretion (urine, 24 h) ([2]; RIS dose 0.1 mg): 38.1 ± 5.6%; % excretion (urine, 24 h) ([2]; RIS dose 0.5 mg): 45.1 ± 1.0%; % excretion (urine, 24 h) ([2]; RIS dose 1 mg): 43.0 ± 1.8% |
| O=P(O)(O)C(F)(Cc1cnc2ccccn12)P(=O)(O)O [OX14, 1‐fluoro‐2‐(imidazo‐[1,2‐α]pyridin‐3‐yl)‐ethyl‐bisphosphonate] | 0.30 | 52.85% ± 3.82 | 47.15 ± 3.82 % of administered dose | 6.17 ± 0.08 | significant reduction in osteoclast number | significantly reduced | prevented the osteolytic disease | no significant reduction in tumor burden | significantly higher | Adverse side effects (loss or gain of weight, liver toxicity, or death) [4]: no adverse side effects; Prevention of experimentally induced inflammatory colitis [5]: effectiveness in preventing experimentally induced inflammatory colitis; BV/TV by μCT ([6]; OX14 23 µg P/kg s.c. 2×/week, 3 weeks, vs vehicle): increased BV/TV; BV/TV by μCT ([6]; OX14 2.3 and 0.23 µg P/kg s.c. 2×/week, 3 weeks, vs vehicle): not significantly different from the vehicle control group; Osteoclast perimeter on the trabecular bone perimeter ([6]; OX14 2.3 and 0.23 µg P/kg, vs vehicle control): neither of the lower doses of OX14 produced significant reductions; Tumor burden (overall statement) ([7]; OX14 23 µg P/kg s.c. 2×/week): not to reduce tumor burden |
| O=P(O)(O)C(O)(Cn1ccnc1)P(=O)(O)O [Zoledronate, zoledronate] | 0.08 | 27.95% ± 3.18 | 72.05 ± 3.18 % of administered dose | 12.53 ± 0.1 | significant reduction in osteoclast number | significantly reduced | prevented the osteolytic disease | no significant reduction in tumor burden | significantly higher | Number of osteoblasts on the trabecular bone surface ([6]; ZOL 28.4 µg P/kg s.c. 2×/week, 3 weeks, vs vehicle): significant reduction in osteoblasts; Tumor burden by histological analysis of tibias ([7]; 28.4 µg P/kg ZOL s.c. 2×/week, vs tumor control (JJN3)): significant reduction in tumor burden |
| NCCCC(O)(P(=O)(O)O)P(=O)(O)O [Alendronate, alendronate] | 1.52 | – | – | – | – | – | – | – | – | – |
